Data on 4 compounds can be found in patent US20030017565A1, “COMPOSITION AND METHOD FOR TREATING A POROUS ARTICLE AND USE THEREOF” (priority 1996, published 2003).

Data set [1] is described as follows: leaching of Japan cedar blocks after reduced pressure impregnation (Example 3). The data set is classed as physicochemical. Conditions: no LSA, enzyme not added, pH 4.1. As to the method:
The pH was adjusted with sodium hydroxide or sulfuric acid. The reduced pressure impregnation operation was performed by a handy method, i.e., by applying a reduced pressure of 650 to 700 mmHg for 1 hour after dipping the Japan cedar blocks in the treatment liquid and then keeping the blocks at atmospheric pressure for 30 minutes as they were dipped in the treatment liquid. By measuring the weights of each block before and after the impregnation treatment, it was confirmed that as a result of the pressure reduction treatment operation, a sufficient amount of the treating liquid (10 to 14 g) was injected in the blocks. Further, the wood blocks after the impregnation treatment were placed in an incubator at 28° C., for 5 days to effect drying and macromolecularization reaction.

A short description of data set [2]: copper retention rate in Japan cedar sapwood after three leachings (Example 23). The data set is classed as physicochemical. The conditions noted are these: pH of treating liquid 4.6, three leachings of 8 hours. As for the experimental part:
Aqueous solutions having the compositions listed in table 15 below were prepared and adjusted to pH 8.5 with sodium hydroxide. Those compositions which contained no ethylenediamine (EDA) nor ethanolamine (MEA) were tested at pH 4.5 since copper is deposited as copper hydroxide in alkaline regions. […] The wood blocks were taken out of the solutions and air-dried at 28 ° C. for 72 hours and then dried in a forced air circulation drier at 60° C. for 48 hours. After the drying, the wood blocks were submerged in 10 fold volume of deionized water at 25° C. with stirring at 300 rpm for 8 hours for leaching. This operation was repeated three times. The rate of copper fixed to wood was calculated from the sum of the amounts of eluted copper ions by the three elution operations to the total amount of copper ions in the solution impregnated in the wood.

Data set [3] in a line: leaching of Japan cedar blocks treated with LSA and chemical agents (Example 4). The data set is classed as physicochemical. Conditions: 5% LSA; for Elution Rate (%) Chemical Agent: species measured as bracketed (Copper, Zinc, Nickel, Boron, H = hinokitiol), else the agent named. As for the experimental part: For chemical agents having low solubilities, they were added to aqueous lignosulfonic acid solution after it was warmed to 60 to 90° C., and it was cooled at 25° C. after the chemical agents were suspended, dispersed, dissolved by Vortex-Mixer, […]
The amount of lignosulfonic acid which leached off was determined by measurement of the absorbance at 280 nm, and the amount of the chemical agent which leached off was determined by complex formation and spectrophotometry using PAN (1-(2-pyridylazo)-2-naphthol, Aldrich Chemical Company) or quinalizarin (Wako Pure Chemicals), separation, identification and determination, using HPLC or gas chromatography, or atomic absorption analysis were performed, followed by calculation of the amount of the chemical agents which was eluted. When the chemical agents had absorption at 280 nm, the concentration of lignosulfonic acid was calculated by measuring the absorbance at 280 nm of the chemical agents of which the concentration was measured by the above-described method and subtracting an influence by the chemical agent from the absorbance at 280 nm of the liquid which was eluted. The amounts of the chemical agents and lignosulfonic acid which were eluted were calculated and compared taking the amounts of them injected upon the impregnation treatment as 100%.

Data set [4] is described as follows: leaching of cypress blocks, Myrothecium roridum enzyme (Example 5). The data set is classed as physicochemical. The conditions noted are these: 40 ppm Example 2 enzyme, 5% LSA; for Elution Rate (%) LSA: pH 8.2-8.8; for Elution Rate (%) Chemical Agent: pH 8.2-8.8, species as bracketed (Copper, H = hinokitiol), else the agent named. As to the method: (§1) The amounts of the chemical agents and lignosulfonic acid which were eluted were calculated and compared taking the amounts of them injected upon the impregnation treatment as 100%.

A short description of data set [5]: leaching of cypress blocks, bilirubin oxidase (Example 6). The data set is classed as physicochemical. Conditions: for Elution Rate (%) LSA: pH 8.1-8.8; for Elution Rate (%) Chemical Agent: pH 8.1-8.8, species as bracketed (Copper, Zinc, Nickel, Boron, H = hinokitiol), else the agent named. The text has this: Taking the amounts of the lignosulfonic acid (LSA) and chemical agent as injected upon the impregnation treatment as 100%, respectively, the amounts of the substances which were eluted were compared.

The nature of data set [6]: leaching of cypress blocks, peroxidase + alcohol oxidase (Example 7). The data set is classed as physicochemical. The conditions noted are these: 5 U/ml peroxidase + 5 U/ml alcohol oxidase + 1% methanol; for Elution Rate (%) LSA: pH 8.1-8.8; for Elution Rate (%) Chemical Agent: pH 8.1-8.8, species as bracketed (Copper, Zinc, Boron, H = hinokitiol), else the agent named. The text has this: The peroxidase used was obtained from horse radish (Type II, Sigma) and the alcohol oxidase used was obtained from Candida boidini (Boehringer Mannheim Biochemica).

A short description of data set [7]: leaching of Japan cedar blocks after initial vacuum and pressure impregnation (Example 10). The data set is classed as physicochemical. Conditions: initial vacuum then 10 atm, enzyme added, 5% LSA; for Elution Rate (%) LSA: pH 8.1-8.8; for Elution Rate (%) Chemical Agent: pH 8.1-8.8, species as bracketed (Copper, Zinc, Nickel, H = hinokitiol), else the agent named. As to the method: A reaction mixture for treating wood containing 30 ppm of the freeze-dried product described in Example 1, 5% of commercially available lignosulfonic acid, and one or more various chemical agents was prepared, and Japan cedar wood blocks (3 cm×3 cm×2 cm, butt end: 3 cm×3 cm) were subjected to pressure reduction (initial vacuum) and impregnation treatment under pressure using the reaction mixture in the same manner as in Examples 3 and 4.
The pressure reduction and pressurization were performed by setting a vessel for impregnation operation as shown in FIG. 1 in a pressure reactor (5 liter in volume), conducting initial vacuum from 600 to 720 mmHg for 30 minutes using a vacuum pump, tilting the whole apparatus to allow the treatment liquid to flow toward the wood so that the wood blocks can be dipped in the treatment liquid, and then pressurized at 10 atm for 1 hour by flowing high pressure nitrogen gas in the reactor.
The wood blocks after the impregnation treatment were further subjected to drying/macromolecularization reaction and leaching treatment in the same manner as in Examples 3 and 4. The amounts of the chemical agents and lignosulfonic acid which were eluted were calculated and compared taking the amounts of them injected upon the impregnation treatment as 100%.

Data set [8] deals with Coriolus versicolor FEPRI 1030. Description: antifungal test on treated wood, weight loss. The data set is classed as cell-based. Conditions: leached wood blocks of Example 10, LSA added, enzyme added, pH of treating liquid 8.1-8.8, 26° C., 12 weeks. As for the experimental part:
(§2) After completion of the antifungal operation, the wood blocks were taken out of the incubator and hyphae on the surface thereof were removed sufficiently. After air dried for about 24 hours, the wood blocks were dried sufficiently using a drier and a desiccator in the same manner as described above and their weight was measured. Percent weight loss (%) was calculated by comparing the weight obtained with the weight before the antifungal operation.

Data set [9] deals with Tyromyces palustris FEPRI 0507. Description: antifungal test on treated wood, weight loss. The data set is classed as cell-based. Conditions: leached wood blocks of Example 10, LSA added, enzyme added, pH of treating liquid 8.1-8.8, 26° C., 12 weeks. As to the method:
as §2

Data set [10] is described as follows: leaching of Japan cedar blocks, treating mixture with tung oil (Example 8). The data set is classed as physicochemical. Conditions: Example 1 enzyme, 5% LSA, 2,000 ppm tung oil. As to the method: as §1
Another data set relates to house termite. Description: termite preventing test on treated wood, weight reduction. The data set is classed as in vivo. Conditions: leached wood blocks of Example 10, LSA added, enzyme added, pH 8.1-8.5, about 40 cm from termite nest, 2 months. The source says:
The wood blocks were placed on the soil at a distance of about 40 cm around the nest of house termite. After they were left to stand for 2 months, termite preventive properties were observed. […] Then, the dry weight thus obtained was compared with the weight of the wood blocks before the placement on the soil, thus calculating a weight reduction rate.

Setting [11] is: in the absence of enzyme (comparison), pH 8.1-8.8.
Setting [12] is: in the presence of enzyme, Japan cedar, pH of treating agent 8.1-8.8.
[13] abbreviates: in the presence of enzyme, pH 8.1-8.8.

For `O=S(=O)([O-])[O-].[Cu+2]` [0.04 M CuSO4, copper (II) sulfate], the “Elution Rate (%) Copper” value in data set [1] amounted to 58.5%. The “Copper Retention Rate (%)” value was found to be 19.3% in [2] (enzyme added (20 ppm)) and 21.8% in data set [2] (enzyme not added).
As to `O=C(OC[C@H]1O[C@@H](OC(=O)c2cc(O)c(O)c(OC(=O)c3cc(O)c(O)c(O)c3)c2)[C@H](OC(=O)c2cc(O)c(O)c(OC(=O)c3cc(O)c(O)c(O)c3)c2)[C@@H](OC(=O)c2cc(O)c(O)c(OC(=O)c3cc(O)c(O)c(O)c3)c2)[C@@H]1OC(=O)c1cc(O)c(O)c(OC(=O)c2cc(O)c(O)c(O)c2)c1)c1cc(O)c(O)c(OC(=O)c2cc(O)c(O)c(O)c2)c1` [500 ppm Tannic acid, Tannic acid], the “Elution Rate (%) LSA” value came out at 24.2% in data set [3] (setting [11]); 3.8% in data set [3] (setting [12]); 6.8% in data set [4]; 6.6% in [5]; 9.2% in [6]; 2.3% in [7]. For the same compound, the “Elution Rate (%) Chemical Agent” value in data set [3] (setting [11]) is 21.0%; in data set [3] (setting [13]), 4.0%; in [4], 8.7%; in data set [5], 8.3%; in data set [6], 10.3%; in [7], 3.1%. Further, the “Weight Loss (%) Coriolus versicolor” value in data set [8] is 10.8%. Moreover, the “Weight Loss (%) Tyromyces palustris” value in data set [9] is reported as 12.9%.
Regarding `CC(C)c1cccc(=O)c(O)c1` [1000 ppm Hinokitiol, Hinokitiol], the “Elution Rate (%) LSA” value came out at 24.2% in data set [3] (setting [11]); 0.6% in data set [3] (setting [12]); 2.2% in data set [4]; 1.7% in data set [5]; 4.5% in data set [6]; 1.1% in data set [10] (pH 8.1-8.5). Moreover, in data set [7], the “Elution Rate (%) LSA” value amounted to 0.4%. The “Elution Rate (%) Chemical Agent” value in data set [3] (setting [11]) came out at 14.4%; in data set [3] (setting [13]) it was 3.1%; in data set [4], 7.2%; in data set [5], 5.4%; in data set [6], 6.2%; in [10] (pH 8.1-8.5, species as bracketed (Copper, Zinc, Nickel, H = hinokitiol), else the agent named), 0.5%. For the same compound, the “Elution Rate (%) Chemical Agent” value in data set [7] came to 2.3%. Further, the “Weight Loss (%) Coriolus versicolor” value in data set [8] was determined as 1.5%. The “Weight Loss (%) Tyromyces palustris” value in data set [9] was 2.2%. The “Weight Reduction Rate (%)” value in the data set with house termite is reported as 2.2%.
“(+)-Catechin · H2O [1000 ppm (+)-Catechin · H2O]”: the “Elution Rate (%) LSA” value in [3] (setting [11]) turned out to be 23.4%; in data set [3] (setting [12]), 2.7%; in data set [4], 5.2%; in data set [5] it was 4.4%; in [6], 5.3%; in [7], 2.1%. Moreover, the “Elution Rate (%) Chemical Agent” value came to 11.3% in data set [3] (setting [11]); 2.8% in [3] (setting [13]); 6.6% in data set [4]; 6.3% in data set [5]; 8.7% in data set [6]; 2.0% in data set [7]. The “Weight Loss (%) Coriolus versicolor” value in data set [8] is given as 8.3%. The “Weight Loss (%) Tyromyces palustris” value in [9] was found to be 9.9%.
